Assay results published in paper PMC9868454, “Exploring novel targets of sitagliptin for type 2 diabetes mellitus: Network pharmacology, molecular docking, molecular dynamics simulation, and SPR approaches” (Frontiers in Endocrinology, 2023).

Molecular target: angiotensin-converting enzyme 2 (ACE2) (Homo sapiens, UniProt Q9BYF1)
Assay: SPR (Biacore T200, ACE2 coupled to CM5 chip, steady-state affinity fit)
Format: binding

Sequence of angiotensin-converting enzyme 2 (ACE2) (Q9BYF1 18-805): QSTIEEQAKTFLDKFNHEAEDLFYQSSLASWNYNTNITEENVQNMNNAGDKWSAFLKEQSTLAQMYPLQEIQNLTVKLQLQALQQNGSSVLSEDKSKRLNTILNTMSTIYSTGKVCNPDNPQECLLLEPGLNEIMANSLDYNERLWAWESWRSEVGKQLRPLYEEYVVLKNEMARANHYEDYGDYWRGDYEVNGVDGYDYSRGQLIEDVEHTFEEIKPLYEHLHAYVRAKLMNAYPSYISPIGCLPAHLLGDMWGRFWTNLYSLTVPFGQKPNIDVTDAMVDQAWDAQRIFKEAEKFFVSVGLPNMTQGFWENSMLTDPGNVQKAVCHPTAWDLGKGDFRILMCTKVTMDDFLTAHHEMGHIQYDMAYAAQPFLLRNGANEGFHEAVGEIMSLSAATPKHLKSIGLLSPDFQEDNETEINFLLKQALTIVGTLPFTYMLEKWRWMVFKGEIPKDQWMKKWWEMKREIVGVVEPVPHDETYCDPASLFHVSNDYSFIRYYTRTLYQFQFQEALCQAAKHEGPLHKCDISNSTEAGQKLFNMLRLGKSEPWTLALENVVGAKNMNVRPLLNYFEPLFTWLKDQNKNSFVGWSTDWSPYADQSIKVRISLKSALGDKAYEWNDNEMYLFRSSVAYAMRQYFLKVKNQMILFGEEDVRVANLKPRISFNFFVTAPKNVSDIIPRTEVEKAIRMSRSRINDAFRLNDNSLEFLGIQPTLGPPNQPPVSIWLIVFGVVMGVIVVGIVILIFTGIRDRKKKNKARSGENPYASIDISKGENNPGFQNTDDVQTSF

For `N[C@@H](CC(=O)N1CCn2c(nnc2C(F)(F)F)C1)Cc1cc(F)c(F)cc1F` [sitagliptin], the Kd was 35.1 nM.
